From patent US20260216294A1, “BETA 2-ADRENERGIC RECEPTOR AGONISTS FOR TREATMENT OR PREVENTION OF MUSCLE WASTING” (ATROGI AB, priority 2023, published 2026)

How the values were obtained:
L6-myotubes [1] = assay: Glucose uptake in differentiated L6-myotubes (Biological Example 2); format: cell-based; settings: read-out: Biological example 2 (GU)
Method in brief: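 Differentiated L6 myotubes were serum-starved overnight in 0.5% fatty-acid-free BSA and then stimulated with compound or isoprenaline at 1×10^−5 M final. After 1 h 40 min cells were washed and re-dosed in glucose-free medium. Twenty minutes later, uptake of 50 nM ^3H-2-deoxyglucose over 10 min was measured by scintillation counting of NaOH lysates.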

L6-myotubes [2] = assay: Measurement of intracellular cAMP levels in differentiated L6-myotubes (Biological Example 3); format: cell-based; settings: 0.25 h
Method in brief: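 Serum-starved differentiated L6 myotubes stimulated 15 min with test compound at 1×10^−5 M final (isoprenaline as reference) in HBSS with 1% BSA, 5 mM HEPES, 1 mM IBMX, pH 7.4. Cells EtOH-extracted, lysed, and intracellular cAMP measured by AlphaScreen.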

[3] = glucose uptake, compound at 10 μM relative to isoproterenol at 10 μM
[4] = intracellular cAMP, compound at 10 μM relative to isoproterenol at 10 μM
[5] = glucose uptake in differentiated L6-myotubes, compound at 10 μM, activity relative to isoproterenol at 10 μM
[6] = intracellular cAMP in differentiated L6-myotubes, compound at 10 μM, activity relative to isoproterenol at 10 μM

Row | Structure (SMILES) | Emax at 10 µM (L6-myotubes [1]; [3]) [%] | Emax at 10 µM (L6-myotubes [2]; [4]) [%] | Emax at 10 µM (L6-myotubes [1]; [5]) [%] | Emax at 10 µM (L6-myotubes [2]; [6]) [%]
1 | C[C@H]1CC[C@@H]([C@H](O)c2ccccc2)N1 (racemic) [Compound 38, Racemic mixture of (R)-[(2S,5S)-5-methyl-2-pyrrolidinyl]phenylmeth anol and (S)-[(2R,5R)-5-methyl-2-pyrrolidinyl]] phenylmethanol] | 25 to 50 | < 25 | – | –
2 | CC1(C)CCC[C@@H]([C@@H](O)c2ccccc2F)N1 [Compound 192, (S)-[(S)-6,6-dimethyl-2-piperidyl](o-fluorophenyl)methanol] | 25 to 50 | < 25 | – | –
3 | CC1(C)CC[C@H]([C@@H](O)c2ccc(F)cc2)N1 [Compound 172] | < 25 | < 25 | – | –
4 | CC(=O)N(C)[C@H]1CC[C@H](CC(C)(C)NC[C@H](O)c2cncc(F)c2)CC1 [Compound 506] | – | – | > 75 | 25 to 50
5 | CC(C)(C[C@H]1CC[C@@H](NC(=O)OC(C)(C)C)CC1)NC[C@H](O)c1cccc(C(F)(F)F)n1 [Compound 450, (1R,4s)-4-(2-{(S)-2-hydroxy-2-[6-(trifluoromethyl)-2-pyridyl]]ethylamino}-2-methylpropyl)cyclohexyl 2-methyl-2-propanecarbamate] | – | – | < 25 | < 25
6 | CC1(C)C[C@@H]([C@@H](O)c2cncc(F)c2)N1 [Compound 215] | – | – | 25 to 50 | < 25
7 | CC(C)(C[C@H]1CC[C@@H](N)CC1)NC[C@H](O)c1cccc(F)c1 [Compound 456] | – | – | > 75 | < 25
8 | CC1(C)CCC[C@H]([C@H](O)c2ccccc2F)N1 [Compound 177, (R)-[(R)-6,6-dimethyl-2-piperidyl](o-fluorophenyl)methanol] | 50 to 75 | < 25 | – | –
9 | O[C@@H](c1cccc(F)c1)[C@H]1CC[C@H](Cc2ccc(Cl)cc2)N1 [Compound 394, (S)-{(2R,5R)-5-[(p-chlorophenyl)methyl]-2-pyrrolidinyl}(m-fluorophenyl)methanol] | – | – | 50 to 75 | < 25
10 | CCC[C@H]1CCC[C@@H]([C@H](O)c2cccc(Cl)c2)N1 [Compound 123] | 25 to 50 | < 25 | – | –
11 | CC(C)(C[C@H]1CC[C@H](NS(=O)(=O)C(F)(F)F)CC1)NC[C@H](O)c1cccc(F)c1 [Compound 458] | – | – | > 75 | < 25
12 | CC12CCC([C@H](O)c3cccc(Cl)c3)(CC1)N2 [Compound 197, (R)-(m-chlorophenyl)(4-methyl-7-azabicyclo[[2.2.1]]hept-1-yl)methanol] | > 75 | < 25 | – | –
13 | CCC[C@H]1CCC[C@H]([C@H](O)c2ccccc2F)N1 [Compound 93, (R)-[(2R,6S)-6-propyl-2-piperidyl](o-fluorophenyl)methanol] | 25 to 50 | < 25 | – | –
14 | O[C@@H](CNCCC[C@H]1CC[C@H](OCc2ccccc2)CC1)c1cncc(F)c1 [Compound 276, (R)-1-(5-fluoro-3-pyridyl)-2-{3-[(1r,4S)-4-(benzyloxy)cyclohexyl]propylamino}-1-ethanol] | – | – | 25 to 50 | < 25
15 | CC1(C)CC[C@H]([C@@H](O)c2ccccc2Cl)N1 [Compound 151] | < 25 | < 25 | – | –
16 | CCC[C@@H]1CCC[C@@H]([C@H](O)c2cccc(O)c2)N1 [Compound 136] | > 75 | < 25 | – | –
17 | CCCCNC[C@H](O)c1cnc(N)s1 [Compound 75, (S)-1-(2-amino-1,3-thiazol-5-yl)-2-(butylamino)-1-ethanol] | 25 to 50 | < 25 | – | –
18 | CO[C@H]1CC[C@H](CCCNC[C@H](O)c2cncc(F)c2)CC1 [Compound 261, (R)-1-(5-fluoro-3-pyridyl)-2-{3-[(1r,4S)-4-methoxycyclohexyl]propylamino}-1-ethanol] | – | – | < 25 | < 25
19 | CCC[C@H]1CC[C@H]([C@H](O)c2cccc(O)c2)N1 [Compound 125, m-{(R)-[(2R,5S)-5-propyl-2-pyrrolidinyl] hydroxymethyl}phenol] | 50 to 75 | < 25 | – | –
20 | CCCCNC[C@H](O)c1csc(N)n1 [Compound 71, (S)-1-(2-amino-1,3-thiazol-4-yl)-2-(butylamino)-1-ethanol] | 25 to 50 | < 25 | – | –
21 | CCC[C@@H]1CC[C@H]([C@H](O)c2cccc(Cl)c2)N1 [Compound 141, (R)-[(2R,5R)-5-propyl-2-pyrrolidinyl](m-chlorophenyl)methanol] | 50 to 75 | < 25 | – | –

Row | Structure (SMILES) | Emax at 10 µM (L6-myotubes [1]; [3]) [%] | Emax at 10 µM (L6-myotubes [2]; [4]) [%] | Emax at 10 µM (L6-myotubes [1]; [5]) [%] | Emax at 10 µM (L6-myotubes [2]; [6]) [%]
22 | CC1(C)C[C@H]([C@@H](O)c2cncc(F)c2)N1 [Compound 217] | – | – | 25 to 50 | < 25
23 | CC12CCC([C@H](O)c3ccccc3F)(CC1)N2 [Compound 181, (R)-(o-fluorophenyl)(4-methyl-7-azabicyclo[[2.2.1]]hept-1-yl)methanol] | > 75 | < 25 | – | –
24 | CO[C@H]1CC[C@H](C[C@H]2CC[C@H]([C@H](O)c3ccccc3F)N2)CC1 [Compound 339, (R)-[(2R,5R)-5-{[(1r,4R)-4-methoxycyclohexyl]methyl}-2-pyrrolidinyl](o-fluorophenyl)methanol] | – | – | > 75 | < 25
25 | CC1(C)CCC[C@H]([C@@H](O)c2cccc(F)c2)N1 [Compound 101] | 25 to 50 | < 25 | – | –
26 | CO[C@H]1CC[C@H](C[C@]2(C)CC[C@H]([C@H](O)c3cccc(F)c3)N2)CC1 [Compound 364, (R)-[(2R,5S)-5-methyl-5-{[(1r,4S)-4-methoxycyclohexyl]methyl}-2-pyrrolidinyl] (m-fluorophenyl)methanol] | – | – | > 75 | 50 to 75
27 | COC(=O)[C@H]1CC[C@H](C(C)(C)NC[C@H](O)c2cncc(F)c2)CC1 [Compound 370, (1R,4r)-8-[(R)-2-(5-fluoro-3-pyridyl)-2-hydroxyethylamino]-7-methoxy-p-menthan-7-one] | – | – | > 75 | < 25
28 | CC(C)(C[C@H]1CC[C@@H](N)CC1)NC[C@@H](O)c1cccc(C#N)n1 [Compound 416] | – | – | 50 to 75 | < 25
29 | CC1(C)CCC[C@H]([C@H](O)c2ccccc2Cl)N1 [Compound 162, (R)-[(R)-6,6-dimethyl-2-piperidyl](o-chlorophenyl)methanol] | 25 to 50 | < 25 | – | –
30 | CC1(C)CC[C@H]([C@H](O)c2ccccc2Cl)N1 [Compound 152, (R)-[(R)-5,5-dimethyl-2-pyrrolidinyl](o-chlorophenyl)methanol] | > 75 | < 25 | – | –
31 | CC(C)(NC[C@H](O)c1cncc(F)c1)[C@H]1CC[C@@H](C(=O)O)CC1 [Compound 323, (1S,4s)-8-[(R)-2-(5-fluoro-3-pyridyl)-2-hydroxyethylamino]-7-hydroxy-p-menthan-7-one] | – | – | 25 to 50 | 50 to 75
32 | CCC[C@H]1CCC[C@H]([C@H](O)c2cccc(F)c2)N1 [Compound 69] | 50 to 75 | < 25 | – | –
33 | CC12CC(C1)[C@H]([C@H](O)c1cccc(Cl)c1)N2 [Compound 206] | – | – | > 75 | < 25
34 | COc1ccc(C[C@@]2(C)CC[C@H]([C@@H](O)c3cccc(F)c3)N2)cc1 [Compound 365, (S)-{(2R,5R)-5-[(p-methoxyphenyl)methyl]-5-methyl-2-pyrrolidinyl}(m-fluorophenyl)methanol] | – | – | > 75 | < 25
35 | CC1(C)C[C@@H]([C@@H](O)c2ccccc2F)N1 [Compound 205, (S)-[(S)-4,4-dimethyl-2-azetidinyl](o-fluorophenyl)methanol] | – | – | 25 to 50 | < 25
36 | CC1(C)CC[C@H]([C@@H](O)c2cccc(Cl)c2)N1 [Compound 153, (S)-[(R)-5,5-dimethyl-2-pyrrolidinyl](m-chlorophenyl)methanol] | 25 to 50 | < 25 | – | –
37 | CC(C)(C[C@H]1CC[C@@H](O)CC1)NC[C@H](O)c1cncc(F)c1 [Compound 301, (R)-2-{1,1-dimethyl-2-[(1s,4S)-4-hydroxycyclohexyl]ethylamino}-1-(5-fluoro-3-pyridyl)-1-ethanol] | – | – | > 75 | < 25
38 | CCCCNCC(O)c1ccncc1 (stereo not drawn) [Compound 48, 2-(butylamino)-1-(4-pyridyl)-1-ethanol] | 25 to 50 | < 25 | – | –
39 | CC(C)(C)NC[C@H](O)c1ncccc1Cl [Compound 146, (S)-2-(tert-butylamino)-1-(3-chloro-2-pyridyl)-1-ethanol] | 25 to 50 | < 25 | – | –
40 | CC(C)(C[C@H]1CC[C@@H](NS(=O)(=O)C(F)(F)F)CC1)NC[C@H](O)c1cncc(F)c1 [Compound 522] | – | – | > 75 | < 25
41 | CS(=O)(=O)N[C@H]1CC[C@H](C[C@@H]2CC[C@H]([C@H](O)c3cccc(F)c3)N2)CC1 [Compound 504] | – | – | 50 to 75 | < 25
42 | CC12CCC([C@@H](O)c3cccc(F)c3)(CC1)N2 [Compound 178, (S)-(m-fluorophenyl)(4-methyl-7-azabicyclo[[2.2.1]]hept-1-yl)methanol] | 25 to 50 | < 25 | – | –
